Patent US4929626A, “α-substituted 4-(quinolin-2-yl-methoxy)phenylacetic acids and esters and lipoxygenase inhibition therewith” (Bayer Aktiengesellschaft, priority 1988, dated 1990)
Structures can show the parent of a compound that is named as a salt.

Assays:
lipoxygenase = assay: Lipoxygenase inhibition: release of leukotriene B4 (LTB4) by polymorphonuclear rat leukocytes (PMN) after Ca ionophore, reverse phase HPLC; type: cell-based
Description: (§1) The pharmacological activity data of the substances according to the invention are determined by the following method: As a measure of the lipoxygenase inhibition, the release of leukotriene B4 (LTB4) by polymorphonuclear rat leukocytes (PMN) was determined after addition of substances and Ca ionophore by means of reverse phase HPLC according to Borgeat, P. et al., Proc. Nat. Acad. Sci. 76, 2148-2152 (1979). The in vivo activity of the compounds was determined using the mouse ear inflammation model according to Young, J. M. et al., J. of Investigative Dermatology 82, 367-371 (1984).

mouse ear inflammation = assay: Mouse ear inflammation model (in vivo activity); settings: 100 mg/kg p.o.
Description: as §1

Row | IC50 (lipoxygenase) [nM] | Compound | Inhibition of inflammation % (mouse ear inflammation) [%]
1 | 55 | CCCCC(C(=O)O)c1ccc(OCc2ccc3ccccc3n2)cc1 (stereo not shown) [Example 20, 2-[4-(Quinolin-2-yl-methoxy)phenyl]caproic acid] | 68
2 | – | CC(C)=CCC(C(=O)O)c1ccc(OCc2ccc3ccccc3n2)cc1 (stereo not shown) [Example 22, 2-[4-(Quinolin-2-yl-methoxy)phenyl]-5-methyl-4-hexenoic acid] | 77
3 | 200 | CCCCCC(O)c1cccc(OCc2ccc3ccccc3n2)c1 (stereo not shown) [2-[3-(1-hydroxyhexyl)phenoxymethyl]quinoline, reference compound] | 24
4 | – | CCCCCC(C(=O)OC)c1ccc(OCc2ccc3ccccc3n2)cc1 (stereo not shown) [Example 10, Methyl 2-[4-(quinolin-2-yl-methoxy)phenyl]heptanoate] | 61
5 | – | C/C=C/CC(C(=O)OC)c1ccc(OCc2ccc3ccccc3n2)cc1 (stereo not shown) [Example 12, Methyl E-2-[4-(quinolin-2-yl-methoxy)phenyl]-4-hexenoate] | 59
6 | 63 | CCCCC(C(=O)OCC(=O)OC)c1ccc(OCc2ccc3ccccc3n2)cc1 (stereo not shown) [Example 27, Methoxycarbonylmethyl 2-[4-(quinolin-2-yl-methoxy)phenyl]caproate hydrochloride] | –
7 | 55 | CCCCC(C(=O)OCC(=O)O)c1ccc(OCc2ccc3ccccc3n2)cc1 (stereo not shown) [Example 29, Carboxymethyl 2-[4-(quinolin-2-yl-methoxy)phenyl]caproate] | 72
